Assay results: the RepoRT retention time repository (doi:10.1021/es4044374)

Test: RP, Waters XBridge C18, 50 × 2.1 mm, 3.5 µm, 30 °C, 0.2 mL/min, estimated dead time 0.55 min; A: water + 0.1% formic acid, pH 3; B: methanol + 0.1% formic acid, pH 3; gradient (min/%B) 0/10 4/50 17/95 25/95 25.1/10 30/10
Conditions: stereoisomer not certain

NC(CC(=O)N1CCn2c(nnc2C(F)(F)F)C1)Cc1cc(F)c(F)cc1F (stereo not drawn) [Sitagliptin] and Nc1cnn(-c2ccccc2)c(=O)c1Cl [Chloridazon] are the same in LC retention time: 5.2 min for the first, 5.2 min for the second.

Compared with CCCOC(=O)NCCCN(C)C [Propamocarb], CCc1cccc(C)c1N(C(=O)CCl)C(C)COC (stereo not drawn) [Metolachlor] is 4.9-fold higher in LC retention time: 2.4 min for the first, 11.8 min for the second.

CC12C=CC(=O)C=C1CCC1C2C(O)CC2(C)C1CCC2(O)C(=O)CO (stereo not drawn) [Prednisolone] and CC(C)N(C(=O)CCl)c1ccccc1 [Propachlor] are within 1.5-fold of each other in LC retention time: 8 min for the first, 8.6 min for the second.

Cc1c(N)c(=O)n(-c2ccccc2)n1C [4-Aminoantipyrine] and Nc1nc2ccccc2[nH]1 [2-Aminobenzimidazole] are within 1.5-fold of each other in LC retention time: 2.6 min for the first, 2.7 min for the second.

Going from CNC(=O)Nc1ccc(Cl)c(Cl)c1 [Diuron-desmethyl] to CNC(=O)Oc1cc(C)c(S(C)=O)c(C)c1 (stereo not drawn) [Methiocarb-sulfoxide], the LC retention time falls from 8.5 min to 4.9 min (1.7-fold).

Compared with CCCCCCCCn1sccc1=O [2-Octyl-3(2H)-isothiazolone], COCCN(C(=O)CS(=O)(=O)O)c1c(C)cccc1C [Dimethachlor ESA] is 2-fold lower in LC retention time: 11.6 min for the first, 5.9 min for the second.

COc1ccc(CCC(=O)c2c(O)cc(OC3OC(CO)C(O)C(O)C3OC3OC(C)C(O)C(O)C3O)cc2O)cc1O (stereo not drawn) [Neohesperidin dihydrochalcone] and CC(=O)OC1C(C)OC(n2cc(F)c(N)nc2=O)C1OC(C)=O (stereo not drawn) [2',3'-di-O-acetyl-5'-deoxy-5-fluorocytidine] are within 1.5-fold of each other in LC retention time: 7.2 min for the first, 5.2 min for the second.

CC(C)(C)Nc1nc(N)nc(Cl)n1 [Terbutylazine-desethyl] and CC=C1N(C)C(C)CC1(c1ccccc1)c1ccccc1 (stereo not drawn) [EDDP] are within 1.5-fold of each other in LC retention time: 7.6 min for the first, 6.5 min for the second.

O=P(O)(OCCC(F)(F)C(F)(F)C(F)(F)C(F)(F)C(F)(F)C(F)(F)F)OCCC(F)(F)C(F)(F)C(F)(F)C(F)(F)C(F)(F)C(F)(F)F [Bisperfluorooctyl phosphate] and Cc1ccc(N=CN(C)C=Nc2ccc(C)cc2C)c(C)c1 [Amitraz] are within 1.5-fold of each other in LC retention time: 18.1 min for the first, 15.4 min for the second.
